For 16 compounds, IC50 results are on record in US20230203059A1, “MACROCYCLIC JAK INHIBITOR AND USES THEREOF” (Biopolar Hongye (Guangdong) Pharmaceutical Co. Ltd., priority 2020, published 2023).

Common to all, as to format: biochemical
One assay concerns the target JAK1 (Homo sapiens, UniProt P23458). The assay is described as follows: JAK kinase activity, homogeneous time-resolved fluorescence (JAK1 reaction system). The conditions noted are these: ATP 2 μM, JAK1 protein 0.2 ng/μL; read-out: JAK 1 activity. Summed up:
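Kinase activity read as the 665 nm/615 nm time-resolved fluorescence ratio (320 nm excitation) after EDTA-containing antibody and XL-615 addition. Reaction ran 1 h at pH 7.0 (Hepes, MgCl2, DTT) with 0.2 ng/μL JAK1 and ATP at 2 μM. IC50 derived by Hill-slope fit.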

The next assay has as its target TYK2 (Homo sapiens, UniProt P29597). The assay is described as follows: JAK kinase activity, homogeneous time-resolved fluorescence (TYK2 reaction system). The note with it: ATP 2 μM, TYK2 protein 0.2 ng/μL; read-out: TYK 2 activity. Summed up:
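Activity read as the 665 nm/615 nm ratio after adding EDTA-containing detection mix with anti-phospho-substrate antibody and XL-615. Beforehand, 0.2 ng/μL TYK2, 2 μM ATP, substrate and compound reacted 1 h in pH 7.0 Hepes buffer with MgCl2 and DTT. IC50 fitted with Hill-slope equation.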

Another assay has as its target JAK2 (Homo sapiens, UniProt O60674). The assay is described as follows: JAK kinase activity, homogeneous time-resolved fluorescence (JAK2 reaction system). The conditions noted are these: ATP 2 μM, JAK2 protein 0.01 ng/μL. Summed up:
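IC50 derived by Hill-equation fit of the 665/615 nm time-resolved fluorescence ratio after EDTA-containing detection mix with anti-phosphosubstrate antibody. Preceding 1 h reaction contained 2 μM ATP, 0.01 ng/μL JAK2, substrate, 50 mM Hepes pH 7.0, 5 mM MgCl2, 1 mM DTT.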

Another assay addresses T1, JAK3 (Homo sapiens, UniProt P52333).
T1 sequence (P52333 1-1124): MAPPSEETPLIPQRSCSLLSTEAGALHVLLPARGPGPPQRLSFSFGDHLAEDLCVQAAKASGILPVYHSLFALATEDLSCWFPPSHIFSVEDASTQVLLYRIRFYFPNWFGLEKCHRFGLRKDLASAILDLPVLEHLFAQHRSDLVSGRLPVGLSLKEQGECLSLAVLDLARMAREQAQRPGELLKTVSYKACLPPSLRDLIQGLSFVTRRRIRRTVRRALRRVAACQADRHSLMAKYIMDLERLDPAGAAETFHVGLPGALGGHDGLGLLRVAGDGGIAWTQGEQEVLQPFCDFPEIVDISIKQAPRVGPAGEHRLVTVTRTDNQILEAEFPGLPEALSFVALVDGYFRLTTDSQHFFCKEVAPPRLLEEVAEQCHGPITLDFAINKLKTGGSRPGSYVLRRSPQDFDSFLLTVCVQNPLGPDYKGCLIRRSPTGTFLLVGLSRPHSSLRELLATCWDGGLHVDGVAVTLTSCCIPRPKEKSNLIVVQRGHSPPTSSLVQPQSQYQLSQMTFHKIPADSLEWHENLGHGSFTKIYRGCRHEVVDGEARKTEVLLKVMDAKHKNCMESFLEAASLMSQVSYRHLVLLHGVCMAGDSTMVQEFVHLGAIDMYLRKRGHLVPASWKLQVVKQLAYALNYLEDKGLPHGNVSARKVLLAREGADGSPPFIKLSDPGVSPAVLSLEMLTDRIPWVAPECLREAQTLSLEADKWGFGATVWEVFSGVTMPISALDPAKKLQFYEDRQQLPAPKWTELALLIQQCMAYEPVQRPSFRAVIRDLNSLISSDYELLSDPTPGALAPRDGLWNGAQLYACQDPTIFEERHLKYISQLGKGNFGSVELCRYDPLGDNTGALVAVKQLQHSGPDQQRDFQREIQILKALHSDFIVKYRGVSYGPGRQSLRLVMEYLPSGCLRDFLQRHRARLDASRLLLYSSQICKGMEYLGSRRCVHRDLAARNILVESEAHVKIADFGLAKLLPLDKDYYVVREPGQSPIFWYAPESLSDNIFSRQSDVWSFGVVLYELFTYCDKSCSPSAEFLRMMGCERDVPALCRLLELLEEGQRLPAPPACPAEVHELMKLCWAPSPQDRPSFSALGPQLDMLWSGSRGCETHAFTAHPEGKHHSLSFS
The experiment in a line: JAK kinase activity, homogeneous time-resolved fluorescence (JAK3 reaction system). The note with it: ATP 2 μM, JAK3 protein 0.04 ng/μL; read-out: JAK 3 activity.

Where only a bound is given, the exact number is not on record here.

TYK2, sequence (P29597 whole entry): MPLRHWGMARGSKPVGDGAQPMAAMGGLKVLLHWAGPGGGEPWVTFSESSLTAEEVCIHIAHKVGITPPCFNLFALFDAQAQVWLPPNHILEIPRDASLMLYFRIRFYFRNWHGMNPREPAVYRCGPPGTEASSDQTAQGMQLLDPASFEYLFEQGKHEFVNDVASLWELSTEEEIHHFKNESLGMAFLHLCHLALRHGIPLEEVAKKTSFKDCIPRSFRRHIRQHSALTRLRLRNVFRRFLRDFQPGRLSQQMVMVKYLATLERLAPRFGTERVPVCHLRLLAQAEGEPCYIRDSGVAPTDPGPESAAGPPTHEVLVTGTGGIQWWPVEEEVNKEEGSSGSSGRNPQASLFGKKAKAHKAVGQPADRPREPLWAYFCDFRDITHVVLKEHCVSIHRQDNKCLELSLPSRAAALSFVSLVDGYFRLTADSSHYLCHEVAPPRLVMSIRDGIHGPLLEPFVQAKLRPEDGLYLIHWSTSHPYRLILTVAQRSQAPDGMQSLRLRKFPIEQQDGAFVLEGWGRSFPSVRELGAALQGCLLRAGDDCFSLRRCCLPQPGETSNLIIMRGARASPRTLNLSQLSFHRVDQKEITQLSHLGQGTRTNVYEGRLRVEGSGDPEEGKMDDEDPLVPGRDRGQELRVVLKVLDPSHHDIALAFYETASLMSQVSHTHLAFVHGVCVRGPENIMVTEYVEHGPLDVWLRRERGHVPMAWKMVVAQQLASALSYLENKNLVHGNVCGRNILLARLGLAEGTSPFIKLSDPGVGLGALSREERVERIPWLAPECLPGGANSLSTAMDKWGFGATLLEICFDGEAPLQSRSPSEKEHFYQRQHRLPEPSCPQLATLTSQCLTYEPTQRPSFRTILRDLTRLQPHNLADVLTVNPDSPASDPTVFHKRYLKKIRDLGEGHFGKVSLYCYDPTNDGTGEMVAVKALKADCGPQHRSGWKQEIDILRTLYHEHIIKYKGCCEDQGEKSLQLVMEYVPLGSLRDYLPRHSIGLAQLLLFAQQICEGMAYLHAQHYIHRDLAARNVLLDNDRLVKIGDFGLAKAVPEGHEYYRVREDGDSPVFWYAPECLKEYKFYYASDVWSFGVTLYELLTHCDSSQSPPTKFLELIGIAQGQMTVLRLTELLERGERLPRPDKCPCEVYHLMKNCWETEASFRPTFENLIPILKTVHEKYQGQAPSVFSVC
JAK1, sequence (P23458 whole entry): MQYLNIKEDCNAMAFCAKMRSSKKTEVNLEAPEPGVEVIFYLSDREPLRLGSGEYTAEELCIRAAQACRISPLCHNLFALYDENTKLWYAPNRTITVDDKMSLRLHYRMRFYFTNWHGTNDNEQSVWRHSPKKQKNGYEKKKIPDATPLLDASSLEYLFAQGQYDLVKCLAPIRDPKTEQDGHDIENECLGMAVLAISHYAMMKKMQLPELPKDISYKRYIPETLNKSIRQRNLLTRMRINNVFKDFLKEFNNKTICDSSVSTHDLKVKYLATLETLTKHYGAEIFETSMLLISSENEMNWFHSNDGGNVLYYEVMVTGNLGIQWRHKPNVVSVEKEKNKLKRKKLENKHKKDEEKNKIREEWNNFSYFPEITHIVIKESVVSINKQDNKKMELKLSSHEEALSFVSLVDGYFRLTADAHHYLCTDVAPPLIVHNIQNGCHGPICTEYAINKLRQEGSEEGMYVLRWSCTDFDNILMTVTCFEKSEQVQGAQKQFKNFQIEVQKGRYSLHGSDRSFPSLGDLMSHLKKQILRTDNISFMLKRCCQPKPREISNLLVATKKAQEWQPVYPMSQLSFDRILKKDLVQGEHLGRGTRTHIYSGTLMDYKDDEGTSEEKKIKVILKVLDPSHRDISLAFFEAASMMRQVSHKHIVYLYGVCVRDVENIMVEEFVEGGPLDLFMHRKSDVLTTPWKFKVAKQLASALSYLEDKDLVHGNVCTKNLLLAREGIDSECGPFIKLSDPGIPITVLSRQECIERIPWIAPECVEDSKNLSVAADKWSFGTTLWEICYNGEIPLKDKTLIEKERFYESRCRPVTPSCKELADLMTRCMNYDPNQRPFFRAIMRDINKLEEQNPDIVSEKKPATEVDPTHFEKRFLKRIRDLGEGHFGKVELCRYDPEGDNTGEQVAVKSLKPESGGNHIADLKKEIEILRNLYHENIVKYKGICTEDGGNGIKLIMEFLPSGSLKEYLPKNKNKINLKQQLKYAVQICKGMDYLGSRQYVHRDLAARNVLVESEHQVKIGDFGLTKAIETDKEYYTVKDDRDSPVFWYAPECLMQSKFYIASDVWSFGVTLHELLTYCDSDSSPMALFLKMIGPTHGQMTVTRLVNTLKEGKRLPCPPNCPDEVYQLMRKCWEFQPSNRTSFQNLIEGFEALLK
JAK2, sequence (O60674 whole entry): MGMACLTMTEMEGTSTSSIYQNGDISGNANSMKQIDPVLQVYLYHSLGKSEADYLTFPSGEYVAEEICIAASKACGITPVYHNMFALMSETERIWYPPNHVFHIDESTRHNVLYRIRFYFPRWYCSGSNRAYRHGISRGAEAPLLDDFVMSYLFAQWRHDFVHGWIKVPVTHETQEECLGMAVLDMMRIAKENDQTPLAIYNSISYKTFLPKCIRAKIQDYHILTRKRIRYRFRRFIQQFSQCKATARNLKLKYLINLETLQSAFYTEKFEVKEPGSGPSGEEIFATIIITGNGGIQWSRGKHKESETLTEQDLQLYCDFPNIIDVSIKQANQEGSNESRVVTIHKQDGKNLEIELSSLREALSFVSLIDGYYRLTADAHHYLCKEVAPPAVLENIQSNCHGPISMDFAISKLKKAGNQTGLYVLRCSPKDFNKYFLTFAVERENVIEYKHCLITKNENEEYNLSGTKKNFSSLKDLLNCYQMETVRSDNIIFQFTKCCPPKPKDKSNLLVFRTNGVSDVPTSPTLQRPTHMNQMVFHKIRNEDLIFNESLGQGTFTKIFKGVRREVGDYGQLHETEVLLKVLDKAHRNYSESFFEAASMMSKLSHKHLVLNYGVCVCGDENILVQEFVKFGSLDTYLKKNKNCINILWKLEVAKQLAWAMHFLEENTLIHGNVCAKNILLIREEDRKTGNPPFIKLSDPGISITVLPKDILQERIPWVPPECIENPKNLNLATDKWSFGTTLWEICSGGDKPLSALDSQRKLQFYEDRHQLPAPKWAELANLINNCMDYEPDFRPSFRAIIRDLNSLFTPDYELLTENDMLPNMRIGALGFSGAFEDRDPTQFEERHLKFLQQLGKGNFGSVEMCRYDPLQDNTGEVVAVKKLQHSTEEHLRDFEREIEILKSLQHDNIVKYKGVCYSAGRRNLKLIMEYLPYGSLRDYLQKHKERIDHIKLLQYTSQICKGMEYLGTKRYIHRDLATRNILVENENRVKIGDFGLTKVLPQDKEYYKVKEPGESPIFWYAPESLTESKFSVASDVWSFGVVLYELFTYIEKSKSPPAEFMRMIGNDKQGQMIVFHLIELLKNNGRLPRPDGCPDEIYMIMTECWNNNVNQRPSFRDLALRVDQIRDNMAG

For `COc1cc(Cl)cc(F)c1COc1ccc2cc1COCCCCNC(=O)c1ccc(c(N)c1)-c1ccnc(n1)N2` [Example 193, 1^2-amino-4^4-((4-chloro-2-fluoro-6-methoxybenzyl)oxy)-6-oxa-3,11-diaza-2(4,2)-pyrimidina-1(1,4),4(1,3)-dibenzenacyclododecaphan-12-one], the IC50 was in the range of 1000 to 10000 nM on JAK1, 1000 to 10000 nM on TYK2, 1000 to 10000 nM at JAK2 and 11 to 100 nM on JAK3.

As for `COc1cc(F)cc(C#N)c1COc1ccc2cc1COCCCCNC(=O)c1ccc(c(N)c1)-c1ccnc(n1)N2` [Example 194, 2-(((1^2-amino-12-oxo-6-oxo-3,11-diaza-2(4,2)-pyrimidina-1(1,4),4(1,3)-dibenzenacyclododecaphan-4^4-yl)oxy)methyl)-5-fluoro-3-methoxy-benzonitrile], the IC50 at JAK1 is 1000 to 10000 nM; on TYK2 it was above 10000 nM; on JAK2 it was 101 to 1000 nM; at JAK3, 11 to 100 nM.

Consider `COc1cc(F)cc(Cl)c1COc1ccc2cc1COCCCCNC(=O)c1ccc(c(N)c1)-c1ccnc(n1)N2` [Example 195, 1^2-amino-4^4-((2-chloro-4-fluoro-6-methoxybenzyl)oxy)-6-oxa-3,11-diaza-2(4,2)-pyrimidina-1(1,4),4(1,3)-dibenzenacyclododecaphan-12-one], for which the IC50 at JAK1 was in the range of 1000 to 10000 nM; on TYK2 it was 1000 to 10000 nM; against JAK2, 1000 to 10000 nM; at JAK3, 11 to 100 nM.

Consider `COc1cc(C#N)cc(F)c1COc1ccc2cc1COCCCCNC(=O)c1ccc(c(N)c1)-c1ccnc(n1)N2` [Example 196, 4-(((1^2-amino-12-oxo-6-oxa-3,11-diaza-2(4,2)-pyrimidina-1(1,4),4(1,3)-dibenzenacyclododecaphan-4^4-yl)oxy)methyl)-3-fluoro-5-methoxy-benzonitrile], for which the IC50 at JAK1 was 1000 to 10000 nM; on TYK2, 1000 to 10000 nM; on JAK2, 101 to 1000 nM; at JAK3, below 10 nM.

On to `Nc1cc2ccc1-c1ccnc(n1)Nc1ccc(OC3CCCOC3)c(c1)COc1ccc(cc1)NC2=O` (stereo not shown) [Example 197, 1^2-amino-4^4-((tetrahydro-2H-pyran-3-yl)oxy)-6-oxa-3-8-diaza-2 (4,2)-pyrimidina-1,7(1,4), 4 (1,3)-tribenzenacyclononaphane-9-one], for which the IC50 on JAK1 was 1000 to 10000 nM; on TYK2, 1000 to 10000 nM; on JAK2, 101 to 1000 nM; on JAK3 it was 11 to 100 nM.

Consider `CC(C)Oc1ccc2cc1COc1ccc(cc1)NC(=O)c1ccc(c(N)c1)-c1ccnc(n1)N2` [Example 198, 1^2-amino-4^4-isopropoxy-6-oxa-3,8-diaza-2(4,2)-pyrimidina-1,7(1,4),4(1,3)-tribenzenacyclononaphane-9-one], for which the IC50 at JAK1 lay within 1000 to 10000 nM; at TYK2, 1000 to 10000 nM; against JAK2, 101 to 1000 nM; on JAK3, 11 to 100 nM.

For `Nc1cc2ccc1-c1ccnc(n1)Nc1ccc(OC3CC3)c(c1)COc1ccc(cc1F)NC2=O` [Example 199, 1^2-amino-4^4-cyclopropoxy-7^2-fluoro-6-oxa-3,8-diaza-2(4,2)-pyrimidina-1,7(1,4),4(1,3)-tribenzenacyclonona-phane-9-one], the IC50 fell in the range of 101 to 1000 nM at JAK1, 1000 to 10000 nM on TYK2, 1000 to 10000 nM at JAK2 and 11 to 100 nM at JAK3.

Turning to `Nc1cc2ccc1-c1ccnc(n1)Nc1ccc(OC3CC3)c(c1)COc1ccc(cc1)NC2=O` [Example 200, 1^2-amino-4^4-cyclopropoxy-6-oxa-3,8-diaza-2(4,2)-pyrimidina-1,7(1,4),4(1,3)-tribenzenacyclononanphane-9-one], the IC50 on JAK1 was 1000 to 10000 nM; at TYK2, above 10000 nM; on JAK2 it was 101 to 1000 nM; at JAK3, 11 to 100 nM.

As for `CC(C)COc1ccc2cc1COc1ccc(cc1)NC(=O)c1ccc(c([N+](=O)[O-])c1)-c1ccnc(n1)N2` [Example 201, 4^4-isobutoxy-1^2-nitro-6-oxa-3,8-dia-za-2(4,2)-pyrimidina-1,7(1,4),4(1,3)-tribenzenacyclononaphane-9-one], the IC50 at JAK1 was above 10000 nM; on TYK2 it was above 10000 nM; against JAK2 it was above 10000 nM; on JAK3, 1000 to 10000 nM.

In the case of `CC(C)COc1ccc2cc1COc1ccc(cc1)NC(=O)c1ccc(c(N)c1)-c1ccnc(n1)N2` [Example 202, 1^2-amino-4^4-isobutoxy-6-oxa-3,8-di-aza-2(4,2)-pyrimidina-1,7(1,4),4(1,3)-tribenzenacyclononaphane-9-one], the IC50 was 1000 to 10000 nM on JAK1, above 10000 nM at TYK2, 1000 to 10000 nM against JAK2 and 11 to 100 nM on JAK3.

Take `O=C1Nc2ccc(cc2)OCc2cc(ccc2OC2CCCOC2)Nc2nccc(n2)-c2ccc1cc2[N+](=O)[O-]` (stereo not shown) [Example 203, 1^2-nitro-4^4-((tetrahydro-2H-pyran-3-yl)oxy)-6-oxa-3,8-diaza-2(4,2)-pyri-midina-1,7(1,4),4(1,3)-tribenzenacyclo-nonaphane-9-one]: the IC50 is 1000 to 10000 nM at JAK1, above 10000 nM on TYK2, 1000 to 10000 nM on JAK2 and 101 to 1000 nM on JAK3.

As for `O=C1Nc2ccc(cc2)OCc2cc(ccc2Oc2cccnc2)Nc2nccc(n2)-c2ccc1cc2[N+](=O)[O-]` [Example 204, 1-nitro-4^4-(pyridin-3-oxy)-6-oxa-3,8-diaza-2(4,2)-pyrimidina-1,7(1,4),4(1,3)-tribenzenacyclononaphen-9-one], the IC50 was 1000 to 10000 nM on JAK1, above 10000 nM on TYK2, above 10000 nM on JAK2 and 1000 to 10000 nM on JAK3.

Turning to `Nc1cc2ccc1-c1ccnc(n1)Nc1ccc(Oc3cccnc3)c(c1)COc1ccc(cc1)NC2=O` [Example 205, 1^2-amino-4^4-(pyridin-3-oxy)-6-oxa-3,8-diaza-2(4,2)-pyrimidina-1,7(1,4),4(1,3)-tribenzenacyclononaphane-9-one], the IC50 is 1000 to 10000 nM at JAK1, above 10000 nM on TYK2, 1000 to 10000 nM against JAK2 and 11 to 100 nM on JAK3.

Turning to `O=C1Nc2ccc(cc2)OCc2cc(ccc2OCC2CC2)Nc2nccc(n2)-c2ccc1cc2[N+](=O)[O-]` [Example 206, 4^4-(cyclopropylmethoxy)-1-nitro-6-oxa-3,8-diaza-2(4,2)-pyrimidina-1,7(1,4),4(1,3)-tribenzenacyclo-nonaphane-9-one], the IC50 at JAK1 was 1000 to 10000 nM; at TYK2, above 10000 nM; against JAK2, 101 to 1000 nM; at JAK3, below 10 nM.

Consider `Cc1cc2ccc1NC(=O)c1ccc(c(N)c1)-c1ccnc(n1)Nc1ccc(OC3CC3)c(c1)CO2` [Example 207, 1^2-amino-4^4-cyclopropoxy-7^3-meth-yl-6-oxa-3,8-diaza-2(4,2)-pyrimidina-1,7(1,4),4(1,3)-tribenzenacyclo-nonaphane-9-one], for which the IC50 on JAK1 was 101 to 1000 nM; on TYK2, 1000 to 10000 nM; on JAK2, 101 to 1000 nM; at JAK3, 11 to 100 nM.

As to `Nc1cc2ccc1-c1ccnc(n1)Nc1ccc(OCC3CC3)c(c1)COc1ccc(cc1)NC2=O` [Example 208, 1^2-amino-4^4-(cyclopropylmethoxy)-6-oxa-3,8-diaza-2(4,2)-pyrimidina-1,7(1,4),4(1,3)-tribenzenecyclo-nonaphane-9-one], the IC50 is above 10000 nM on JAK1, above 10000 nM on TYK2, 1000 to 10000 nM against JAK2 and 11 to 100 nM on JAK3.
